Measurements from patent US20240279302A1, “OLFACTORY RECEPTOR EXPRESSING METHOD AND RESPONSE MEASUREMENT METHOD” (Kao Corporation, priority 2021, published 2024).
Read-outs that look alike come from different tables or passages of the source.

Experiments:
OR2T1 = conditions: in the presence of a metal ion (JP-B-6122181); cited from earlier work
OR2T11 = target: T1, OR2T11 (Homo sapiens, UniProt Q8NH01); conditions: cited from earlier work
T1 sequence (Q8NH01 1-316): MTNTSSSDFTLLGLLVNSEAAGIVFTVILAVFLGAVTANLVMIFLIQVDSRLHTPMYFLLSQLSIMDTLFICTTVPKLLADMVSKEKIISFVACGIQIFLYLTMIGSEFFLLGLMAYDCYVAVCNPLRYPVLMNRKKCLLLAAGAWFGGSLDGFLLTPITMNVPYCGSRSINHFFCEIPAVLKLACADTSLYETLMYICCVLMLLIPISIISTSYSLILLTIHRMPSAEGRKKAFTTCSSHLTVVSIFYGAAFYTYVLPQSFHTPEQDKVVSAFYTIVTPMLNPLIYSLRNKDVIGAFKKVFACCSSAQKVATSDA

OR4C15 = OR4C15 (Homo sapiens, UniProt Q8NGM1); conditions: JP-A-2020-510436; cited from earlier work
OR2L13 = OR2L13 (Homo sapiens, UniProt Q8N349); conditions: JP-A-2020-510436; cited from earlier work
consensus OR6B1 = target: T2, consensus OR6B1 (Homo sapiens, UniProt O95007, C165R/C227R/F212S/I201V/I253T/L3V/L50Q/L96H/N89S/S282A/T195A/V262A); assay: Luciferase assay, sulfur compounds; type: cell-based; conditions: in the presence of a copper ion
T2 construct: expressed in transfected cells; host or cells: HEK293

[1] = Block E et al., Nat. Prod. Rep. 2017

Chain of OR2L13 (Q8N349 whole entry): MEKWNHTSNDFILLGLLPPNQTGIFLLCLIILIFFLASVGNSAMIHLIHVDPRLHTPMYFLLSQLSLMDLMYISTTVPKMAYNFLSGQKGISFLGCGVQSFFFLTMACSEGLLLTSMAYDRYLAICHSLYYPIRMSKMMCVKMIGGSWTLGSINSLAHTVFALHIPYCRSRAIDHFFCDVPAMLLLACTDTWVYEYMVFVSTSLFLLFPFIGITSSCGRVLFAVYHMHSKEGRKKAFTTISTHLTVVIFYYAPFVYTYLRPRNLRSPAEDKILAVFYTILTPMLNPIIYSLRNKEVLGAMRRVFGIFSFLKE
T2 sequence (O95007 whole entry L3V/L50Q/N89S/L96H/C165R/T195A/I201V/F212S/C227R/I253T/V262A/S282A): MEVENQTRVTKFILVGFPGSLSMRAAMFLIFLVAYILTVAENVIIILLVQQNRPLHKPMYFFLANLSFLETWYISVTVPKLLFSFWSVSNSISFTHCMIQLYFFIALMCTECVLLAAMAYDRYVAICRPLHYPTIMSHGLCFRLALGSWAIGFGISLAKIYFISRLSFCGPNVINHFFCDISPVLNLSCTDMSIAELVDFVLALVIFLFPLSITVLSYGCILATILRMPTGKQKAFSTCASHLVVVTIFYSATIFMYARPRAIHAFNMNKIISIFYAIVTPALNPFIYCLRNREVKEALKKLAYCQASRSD
Chain of OR4C15 (Q8NGM1 whole entry): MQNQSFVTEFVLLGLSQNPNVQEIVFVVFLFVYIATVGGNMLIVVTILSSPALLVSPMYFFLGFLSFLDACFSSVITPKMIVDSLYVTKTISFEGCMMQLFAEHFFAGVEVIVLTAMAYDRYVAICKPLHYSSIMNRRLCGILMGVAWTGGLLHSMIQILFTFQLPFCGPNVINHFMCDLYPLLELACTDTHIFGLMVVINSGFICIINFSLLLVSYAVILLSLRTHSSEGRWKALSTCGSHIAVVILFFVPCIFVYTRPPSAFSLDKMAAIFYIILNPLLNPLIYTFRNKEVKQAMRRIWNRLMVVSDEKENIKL

## CS [methyl mercaptan]
OR2T1
  response of OR2T1: respond
OR2T11; [1]
  response of OR2T11: responds
OR2T11; in the presence of a metal ion (JP-B-6122181)
  response of OR2T11: respond

## CSSSC [dimethyl trisulfide]
OR4C15
  response of OR4C15: respond
OR2L13
  response of OR2L13: respond
Consensus OR6B1
  response of consensus OR6B1: responded

## CSSC [dimethyl disulfide]
OR2T11; [1]
  response of OR2T11: responds
